Assay [1] concerns the target T1, P2Y purinoceptor 12 (Homo sapiens, UniProt Q9H244). Kind of assay: Inhibition of P2Y12 (unknown origin).
Assay [2] has as its target T1, P2Y purinoceptor 12. Kind of assay: Displacement of [3H]-2MesADP from recombinant human P2Y12 transfected in HEK cell membrane assessed as inhibition constant. In kind it is cell membranes. In general terms: Loss of bound radioactivity is the signal in a displacement assay; it reports binding, not function.
The target in assay [3] is T1, P2Y purinoceptor 12. Kind of assay: Displacement of [3H]-2MesADP from human P2Y12 in HEK cell membrane assessed as inhibition constant incubated for 1 hr by scintillation counter method. In kind it is cell membranes.
Assay [4] has as its target T1, P2Y purinoceptor 12. Kind of assay: Displacement of [3H]PSB-0413 from P2Y12 in human platelets assessed as dissociation constant. In kind it is cell-based, Platelet.
For assay [5], the target named is T1, P2Y purinoceptor 12. Kind of assay: Displacement of [33P]-2MeS-ADP from recombinant human P2Y12 transfected in HEK cell membrane assessed as inhibition constant incubated for 1 hr by competitive binding assay. In kind it is cell membranes.
The target of assay [6] is T1, P2Y purinoceptor 12. Kind of assay: Binding affinity to P2Y12 (unknown origin) assessed as inhibition constant.

Each structure is given as a SMILES string.

Usually IC50 stands for the concentration needed to halve the response being measured. The Ki is the equilibrium dissociation constant of an inhibitor or competing ligand from its target. A word on the Kd: it is the constant that tells how readily two partners part at equilibrium.

T1 sequence (Q9H244 whole entry): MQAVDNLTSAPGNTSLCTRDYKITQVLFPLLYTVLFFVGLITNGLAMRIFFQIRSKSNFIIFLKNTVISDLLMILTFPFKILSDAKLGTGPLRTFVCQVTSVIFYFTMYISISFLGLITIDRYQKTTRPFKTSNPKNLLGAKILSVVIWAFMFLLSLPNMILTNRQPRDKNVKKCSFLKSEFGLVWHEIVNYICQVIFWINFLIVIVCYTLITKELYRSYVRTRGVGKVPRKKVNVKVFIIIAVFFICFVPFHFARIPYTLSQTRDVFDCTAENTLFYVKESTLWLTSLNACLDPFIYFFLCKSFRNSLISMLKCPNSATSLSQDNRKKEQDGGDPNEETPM

As to `CC(=O)Oc1cc2c(s1)CCN(C(C(=O)C1CC1)c1ccccc1F)C2` (stereo not drawn), on P2Y purinoceptor 12 [1], it took 1800 nM to reach half-maximal inhibition (IC50).

On to `CSc1nc(N)c2ncn([C@@H]3O[C@H](COP(=O)(O)OP(=O)(O)O)[C@@H](O)[C@H]3O)c2n1`, for which, at P2Y purinoceptor 12 [2], the inhibition constant (Ki) amounted to 32.1 nM. Take `CCCc1cc2c(N3CCn4c(nnc4C(F)(F)F)C3)nc(OCCF)nc2s1`: the Ki at P2Y purinoceptor 12 [3] amounted to 0.3 nM. With `[3H]C([3H])C([3H])([3H])CSc1nc(N)c2ncn([C@@H]3O[C@H](COP(=O)(O)OP(=O)(O)O)[C@@H](O)[C@H]3O)c2n1`, the Kd at P2Y purinoceptor 12 [4] worked out at 6.5 nM. As for `NCc1cc2c(N3CCN(C(=O)c4ccc(-c5ccccc5)cc4)CC3)nc(N3CCNC(=O)C3)nc2s1`, the Ki on P2Y purinoceptor 12 [5] was determined as 9 nM. As to `CCCCCOC(=O)N1CCN(C(=O)[C@H](CCC(=O)O)NC(=O)c2cc(N3CCC(COC)CC3)cc(-c3ccccc3)n2)CC1`, on P2Y purinoceptor 12 [6], the Ki turned out to be 3.5 nM.

`COC(=O)[C@H](c1ccccc1Cl)N1CCc2sccc2C1` [CLOPIDOGREL] gave a 50% inhibitory concentration (IC50) on P2Y purinoceptor 12 [1] of 2400 nM. At P2Y purinoceptor 12 [1], `CCCSc1nc(N[C@@H]2C[C@H]2c2ccc(F)c(F)c2)c2nnn([C@@H]3C[C@H](OCCO)[C@@H](O)[C@H]3O)c2n1` [TICAGRELOR] yielded an IC50 of 10 nM.

The values are drawn from ChEMBL document CHEMBL5104116, “Strategies for targeting the P2Y12 receptor in the central nervous system” (Bioorg Med Chem Lett, 2022).
